pIC50: −log10 of the molar value.
Tests used:
Toll-like receptor 2 [1] = biological target: T1, Toll-like receptor 2 (Homo sapiens, UniProt O60603); experiment: Antagonist activity at human TLR2 expressed in HEK-Blue cells assessed as inhibition of Pam3CSK4-induced TLR2/TLR1 activation by measuring decrease in NFkappaB activation pretreated for 2 hrs followed by incubation with agonist for 18 hrs by SEAP assay; type: cell-based, HEK-Blue hTLR2
Toll-like receptor 2 [2] = biological target: T1, Toll-like receptor 2; experiment: Antagonist activity at human TLR2 expressed in HEK-Blue cells assessed as inhibition of Pam2CSK4-induced TLR2/TLR6 activation by measuring decrease in NFkappaB activation pretreated for 2 hrs followed by incubation with agonist for 18 hrs by SEAP assay; type: cell-based, HEK-Blue hTLR2
[3] = Stability of the compound in simulated gastric fluid; type: ADME; conditions: simulated gi fluid
[4] = Stability of the compound in PBS buffer/EtOH; type: physicochemical

T1 sequence (O60603 whole entry): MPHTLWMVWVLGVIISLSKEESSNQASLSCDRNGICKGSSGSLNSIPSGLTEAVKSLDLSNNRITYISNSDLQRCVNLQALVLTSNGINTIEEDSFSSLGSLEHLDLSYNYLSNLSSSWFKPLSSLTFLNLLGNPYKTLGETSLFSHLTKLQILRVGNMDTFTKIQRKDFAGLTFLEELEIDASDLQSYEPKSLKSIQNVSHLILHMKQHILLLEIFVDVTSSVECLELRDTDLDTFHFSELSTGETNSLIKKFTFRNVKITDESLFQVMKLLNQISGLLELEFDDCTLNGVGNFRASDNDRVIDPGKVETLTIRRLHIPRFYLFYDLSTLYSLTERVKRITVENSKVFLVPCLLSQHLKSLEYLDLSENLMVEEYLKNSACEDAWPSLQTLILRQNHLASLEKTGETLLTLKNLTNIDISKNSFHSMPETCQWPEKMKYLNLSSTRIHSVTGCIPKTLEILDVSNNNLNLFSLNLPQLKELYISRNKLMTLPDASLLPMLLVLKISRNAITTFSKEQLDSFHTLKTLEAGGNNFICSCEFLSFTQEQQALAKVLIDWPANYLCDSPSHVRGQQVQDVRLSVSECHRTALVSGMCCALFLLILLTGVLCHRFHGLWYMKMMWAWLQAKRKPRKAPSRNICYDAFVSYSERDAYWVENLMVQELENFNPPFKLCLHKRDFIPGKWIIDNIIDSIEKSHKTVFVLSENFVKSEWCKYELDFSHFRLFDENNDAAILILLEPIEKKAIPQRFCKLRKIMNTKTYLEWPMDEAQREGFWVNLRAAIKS

Row | Compound | pIC50 (Toll-like receptor 2 [1]) | pIC50 (Toll-like receptor 2 [2]) | Stabilty [3] [h] | Stabilty [4] [h]
1 | CCCCCCCCCCCCCCOCC(CNC(=O)CC[C@H](NC(=O)OCC1c2ccccc2-c2ccccc21)C(=O)O)OCCCCCCCCCCCCCC (some centres not stated) | 5.06 | 4.88 |  | 
2 | CCCCCCCCCCCCCCOCC(CNC(=O)[C@H](CCCCN)NCc1ccc(F)cc1)OCCCCCCCCCCCCCC (some centres not stated) | 5.54 | < 4.52 |  | 
3 | CCCCCCCCCCCCCCOCC(CNC(=O)[C@H]1CCCN1)OCCCCCCCCCCCCCC (some centres not stated) | 4.84 | < 4.52 |  | 
4 | CCCCCCCCCCCCCCOCC(CNC(=O)[C@@H](CCCCN)NCc1ccccc1)OCCCCCCCCCCCCCC.Cl (some centres not stated) |  |  | > 1 | > 1
5 | CCCCCCCCCCCCCCOCC(CNC(=O)[C@H](CCCCN)NCc1ccc(-c2ccccc2)cc1)OCCCCCCCCCCCCCC (some centres not stated) | 5.55 | 4.55 |  | 
6 | CCCCCCCOC(CNC(=O)[C@H](CCCCN)NCc1ccccc1)COC (some centres not stated) | < 4.52 | < 4.52 |  | 
7 | CCCCC/C=C\CCCCCCCOCC(CNC(=O)c1cccc(C2CCNCC2)c1)OCCCCCCC/C=C\CCCCC (configuration not stated) | 4.73 | 4.77 |  | 
8 | CCCCCCCCCCCCCCOCC(CNC(=O)c1cccc(C2CCNCC2)c1)OCCCCCCCCCCCCCC.Cl (configuration not stated) |  |  | > 1 | > 1
9 | CCCCCCCOCCNC(=O)[C@H](CCCCN)NCc1ccccc1 | 4.65 | 4.86 |  | 
10 | CCCCCCCCCCCCCCOCC(CNC(=O)CCCCCN)OCCCCCCCCCCCCCC (configuration not stated) | < 4.70 | < 4.52 |  | 
11 | CCCCC/C=C\C/C=C\CCCCCCCCOCC(CNC(=O)c1cccc(C2CCNCC2)c1)OCCCCCCCC/C=C\C/C=C\CCCCC (configuration not stated) | 5.48 | 4.79 |  | 
12 | CCCCCCCCCCCCCCOCC(CNC(=O)C1(NC(=O)OCc2ccccc2)CCNCC1)OCCCCCCCCCCCCCC (configuration not stated) | 5.59 | < 4.52 |  | 
13 | CCCCCCCCCCCCCCOCC(CNC(=O)[C@@H](CCCCN)NC(=O)OCc1ccccc1)OCCCCCCCCCCCCCC (some centres not stated) | 5.64 | < 4.52 |  | 
14 | CCCCCCCCCCCCCCOCC(CNC(=O)C(CC1CCNCC1)NC(=O)OCC1c2ccccc2-c2ccccc21)OCCCCCCCCCCCCCC (configuration not stated) | 5.74 | 4.78 |  | 
15 | CCCCCCCCCCCCCCNC(=O)[C@H](CCCCN)NCc1ccccc1 | 4.84 | 4.95 |  | 
16 | CCCCCCCCCCCCCCOCC(CNC(=O)[C@H](CCCCN)NC(=O)OCC1c2ccccc2-c2ccccc21)OCCCCCCCCCCCCCC (some centres not stated) | 5.80 | < 4.52 |  | 
